Patent US20140308668A1, “Method of Determining Susceptibility of a Tumor Cell to a Chemotherapeutic Agent: Novel Use of Herpes SImplex Virus” (priority 2008, published 2014)

Columns and labels:
[1] = system: Melanoma (A375); settings: cited from earlier work
[2] = system: Ovarian tumor (ES-2); settings: cited from earlier work
[3] = system: Hepatic tumor (Hep3B); settings: cited from earlier work
[4] = system: Hepatic tumor (SNU182); settings: cited from earlier work
[5] = system: Hepatic tumor (SNU423); settings: cited from earlier work
[6] = system: Breast tumor (R193); settings: cited from earlier work
[7] = system: Breast tumor (SKBR3); settings: cited from earlier work
[8] = system: Pancreatic tumor (181/85P); settings: cited from earlier work
[9] = system: Gastric tumor (257P); settings: cited from earlier work
[10] = system: Hs578T tumor cells; test: Apoptotic killing of Hs578T tumor cells (morphological alternations by microscopy/Hoechst, death factor processing by immunoblot); assay type: cell-based
Protocol: We have established an in vitro cell model and examined herpes simplex virus-induced apoptotic killing of tumor cells. In the first series of studies, we used a standard inducer of apoptotic killing. A protein kinase inhibitor (i.e., staurosporine) was used. Mammary tumor cells (Hs578T) were cultured and treated with staurosporine (0.1-2 μM) for about 12-18 hours. […] (FIG. 1).
Using Hs578T cells, we next examined whether herpes simplex virus (HSV) can induce apoptotic killing in these tumor cells. Standard methods were used to prepare wild-type HSV-1 (i.e., wtHSV-1). (Blaho et al.: Herpes Simplex Virus: Propagation, Quantification, and Storage. Current Protocols in Microbiology. Wiley & Sons. 14:1-23, 2005). Hs578T cells were infected with wtHSV-1 and examined for tumor cell apoptotic killing. A range of wtHSV-1 concentration was used and we observed that one particle of wtHSV-1 was sufficient to induce apoptotic killing of a tumor cell. Apoptotic killing was evaluated at 24-hour post infection by monitoring morphological alternations and presence of death factor processing as detailed above.
INFECTION OF TUMOR CELLS WITH HSV MUTANTS: Approximately 1×10^6 cells (i.e., tumor cells) were exposed to 10 plaque forming units (PFU) per ml of ΔICP27 virus in 1 ml of 5% NBCS for 1 hour at 37° C. After this adsorption step, the medium was removed and discarded. 3 ml of fresh 5 NBCS was then added. […]
MICROSCOPIC ANALYSIS OF HSV INFECTED TUMOR CELLS: The morphology of HSV infected cells was analyzed by phase contrast and fluorescence microscopy using an Olympus IX70/IX-FLA inverted fluorescence microscope. […]
For visualization of chromatin condensation in live cells, […] Hoechst 33258 (Sigma) per ml was added to the medium and allowed to incubate at 37° C. for 30 min. The percentage (%) of nuclei containing condensed chromatin was determined by dividing the number of brightly stained, small (condensed) nuclei by the total number of nuclei (uncondensed plus condensed) in a particular (640) microscopic field. At least 100 nuclei were counted for each data point. […]

[11] = system: HEp-2 cells; test: Apoptotic killing of HEp-2 tumor cells (morphological alternations and death factor processing); assay type: cell-based, human; settings: for apoptotic killing (morphological alternations and death factor processing): doxorubicin 10 μM, etoposide 125 μM, data not shown
Source text: We also examined if a different type of herpes simplex virus (i.e., HSV-2) may induce apoptotic killing of tumor cells. Standard methods were used to prepare wild-type HSV-2 (i.e., wtHSV-2). (Blaho et al.: Herpes Simplex Virus: Propagation, Quantification, and Storage. Current Protocols in Microbiology. Wiley & Sons. 14:1-23, 2005). Tumor cells (human carcinoma HEp-2) were used and infected with wtHSV-2. […] In particular, wtHSV-2 caused both the morphological alternations and death factor processing (data not shown). Thus, infection of Hs578T and HEp-2 cells with wtHSV-1 and wtHSV-2, respectively, leads to substantial apoptotic killing of tumor cells.
We examined tumor cell killing by chemotherapeutic agents. In this study, HEp-2 cells were treated with varying amounts of doxorubicin and etoposide. Apoptotic killing was measured using the method detailed above. […] Thus, these tumor cells were sensitive to chemotherapeutic agents.
INFECTION OF TUMOR CELLS WITH HSV MUTANTS: Approximately 1×10^6 cells (i.e., tumor cells) were exposed to 10 plaque forming units (PFU) per ml of ΔICP27 virus in 1 ml of 5% NBCS for 1 hour at 37° C. After this adsorption step, the medium was removed and discarded. 3 ml of fresh 5 NBCS was then added. Cells were maintained at 37° C. for at least 18 hours.
MICROSCOPIC ANALYSIS OF HSV INFECTED TUMOR CELLS: The morphology of HSV infected cells was analyzed by phase contrast and fluorescence microscopy using an Olympus IX70/IX-FLA inverted fluorescence microscope. Images were acquired using a Sony DKC-5000 digital photo camera linked to a PowerMac workstation and processed through Adobe Photoshop.
For visualization of chromatin condensation in live cells, […] Hoechst 33258 (Sigma) per ml was added to the medium and allowed to incubate at 37° C. for 30 min. The percentage (%) of nuclei containing condensed chromatin was determined by dividing the number of brightly stained, small (condensed) nuclei by the total number of nuclei (uncondensed plus condensed) in a particular (640) microscopic field. At least 100 nuclei were counted for each data point. The percentage (%) of chromatin condensation is represented as the mean±SD of three independent experiments.
IMMUNOBLOT ANALYSIS OF HSV INFECTED TUMOR CELLS: Whole-cell protein extract was prepared using lysis buffer (50 mM Tris/HCl, pH 7.5, 150 mM NaCl, 1% Triton X-100,1% deoxycholate, 0.1% SDS) supplemented with 2 mM PMSF (freshly prepared stock), 1% Translysol, 0.1 mM L-1-chloro-3-(4-tosylamido)-4-phenyl-2-butanone, 0.01 mM L-1-chlor-3-(4-tosylamido)-7-amino-2-heptanon-hydrochloride. Protein concentrations were determined using a modified Bradford protein assay (Bio-Rad Laboratories). […]

[12] = system: MCF-7; test: Apoptotic killing of MCF-7 breast tumor cells; assay type: cell-based; settings: MCF-7 tumor cells

Row | SMILES | Resistant or Sensitive to Chemotherapeutic Agents [1] | Resistant or Sensitive to Chemotherapeutic Agents [2] | Resistant or Sensitive to Chemotherapeutic Agents [3] | Resistant or Sensitive to Chemotherapeutic Agents [4] | Resistant or Sensitive to Chemotherapeutic Agents [5] | Resistant or Sensitive to Chemotherapeutic Agents [6] | Resistant or Sensitive to Chemotherapeutic Agents [7] | Resistant or Sensitive to Chemotherapeutic Agents [8] | Resistant or Sensitive to Chemotherapeutic Agents [9] | apoptotic effects ([10]; cycloheximide alone, data not shown) | sensitivity of tumor cells to chemotherapeutic agent [11] | apoptotic killing (morphological alternations and death factor processing) [11] | resistance of tumor cells to chemotherapeutic agent (drug-induced apoptosis) [12] | Death Factor Processing Poly(ADP-ribose) Polymerase, Procaspase 3, and DNA Fragmentation Factor-45 ([10]; immunoblot) | chromatin condensation (percentage of nuclei containing condensed chromatin) ([10]; staurosporine 0.1-2 μM, about 12-18 hours, mean±SD of three independent experiments) [%]
1 | O=c1[nH]cc(F)c(=O)[nH]1 [5-Fluorouracil, 5-fluorouracil] | Resistant | Sensitive | Resistant | Resistant | Resistant | Sensitive | Sensitive | Sensitive | Resistant |  |  |  |  |  | 
2 | N.N.[Cl][Pt][Cl] [Cisplatin, cisplatin] | Resistant | Resistant | Resistant | Resistant | Resistant | Resistant | Resistant | Resistant | Resistant |  |  |  |  |  | 
3 | C[C@@H]1C[C@@H]([C@H](O)CC2CC(=O)NC(=O)C2)C(=O)[C@@H](C)C1 [Cycloheximide, cycloheximide] |  |  |  |  |  |  |  |  |  | no apparent apoptotic effects |  |  |  |  | 
4 | COc1cccc2c1C(=O)c1c(O)c3c(c(O)c1C2=O)C[C@@](O)(C(=O)CO)C[C@@H]3O[C@H]1C[C@H](N)[C@H](O)[C@H](C)O1 [Doxorubicin, doxorubicin] | Resistant | Resistant | Resistant | Resistant | Resistant | Resistant | Resistant | Resistant | Resistant |  | sensitive | induce morphological alternations and death factor processing | resistant |  | 
5 | COc1cc([C@@H]2c3cc4c(cc3[C@@H](O[C@@H]3O[C@@H]5CO[C@@H](C)O[C@H]5[C@H](O)[C@H]3O)[C@H]3COC(=O)[C@H]23)OCO4)cc(OC)c1O [Etoposide, etoposide] | Resistant | Resistant | Resistant | Resistant | Resistant | Resistant | Resistant | Resistant | Resistant |  | sensitive | induce morphological alternations and death factor processing | resistant |  | 
6 | CC(=O)O[C@H]1C(=O)[C@@]2(C)[C@H]([C@H](OC(=O)c3ccccc3)[C@]3(O)C[C@H](OC(=O)[C@H](O)[C@@H](NC(=O)c4ccccc4)c4ccccc4)C(C)=C1C3(C)C)[C@]1(OC(C)=O)CO[C@@H]1C[C@@H]2O [Paclitaxel, paclitaxel] | Sensitive | Resistant | Resistant | Resistant | Sensitive | Sensitive | Sensitive | Sensitive | Sensitive |  |  |  |  |  | 
7 | CN[C@@H]1C[C@H]2O[C@@](C)([C@@H]1OC)n1c3ccccc3c3c4c(c5c6ccccc6n2c5c31)C(=O)NC4 [Staurosporine, staurosporine] |  |  |  |  |  |  |  |  |  |  |  |  |  | drastic death factor processing | 86±14
